Measured values from publication PMC8008393, “Preclinical Lead Optimization of a 1,2,4-Triazole Based Tankyrase Inhibitor” (Journal of Medicinal Chemistry, 2020).
≈ marks a conversion by molar mass, not a printed value. Where two headings read alike, the source gives them in different places.

How the values were obtained:
[1] = test system: WNT/β-catenin signaling pathway reporter in HEK293 cells; assay: cells; type: cell-based, human; settings: for activity in words: assay not given (TNKS2 / HEK293), Supplementary Table 1; for IC50: Homo sapiens, HEK293, read-out: HEK293 IC50, WNT/β-catenin reporter
Description: (§1) In the first round of the optimization campaign, we prepared single-point modifications changing any of the four regions in 1 (Figure 1) while leaving the other regions constant. In the following stages of the optimization campaign, additional East, West, and South moieties were also utilized, combining the best structural elements of the first single-point modification round. For the optimization, in vitro ADME properties and solubility of selected compounds were measured.

[2] = target: T1, CYP3A4 (Homo sapiens, UniProt P08684); assay: CYP3A4 inhibition; type: in vitro ADME
T1 construct: Cyprotex
Description: (§2) Kinetic solubility assay was performed following standard protocols of Mercachem. The following assays were performed according to the standard protocols of Cyprotex: Caco-2 permeability, dog microsomal stability, hepatocyte stability (human, mouse, dog, rat, and cynomolgus), CYP3A4 inhibition, mouse plasma stability, mouse plasma protein binding, and Ames test.

[3] = Caco-2 permeability; type: in vitro ADME; settings: human
Description: as §2

[4] = in vivo
Description: as §1
The pharmacokinetical analyses in mice were performed according to the standard protocols of Medicilon and, as previously described,[9] using 3 animals per treatment group using 5% DMSO, 50% PEG400 (both Sigma-Aldrich) and 45% saline as vehicle.

[5] = kinetic solubility assay; type: physicochemical; settings: for solubility: Table 2
Description: as §2

[6] = hepatocyte stability, human; type: in vitro ADME; settings: hepatocytes
Description: as §2

[7] = microsomal stability, human liver microsomes; type: in vitro ADME; settings: for half-life at 1 μM: pH 7.4, read-out: Microsomal stability t1/2 human
Description: (§3) Test compounds in DMSO (10 mM) were further diluted to 100 μM in acetonitrile. Human or mouse liver microsomes (BioIVT) from selected species are incubated in duplicate with the test compound at a final concentration of 1 μM in 0.1 M potassium phosphate buffer (pH 7.4) containing 3.3 mM MgCl2, 0.5 mg/mL microsomal protein, in the presence or absence of NADPH (1 mM). Incubations were performed at 37 °C in a total volume of 500 μL. Control incubations with reference substances were included for each experiment. At t = 0, 5, 15, 30, 45 min, an amount of 50 μL of the incubation mixture was transferred to a quench plate containing acetonitrile and internal standard (200 nM labetalol) cooled at 4 °C. After the last time point, the quench plates are mixed thoroughly and centrifuged for 15 min at 3700 rpm and 10 °C (Eppendorf 5804R). The supernatant was transferred to a 96-well plate and analyzed by LCMS (Vanquish Horizon UHPLC equipped with a diode array detector coupled to a Q Exactive focus hybrid quadrupole-Orbitrap mass spectrometer). The metabolic stability is evaluated by plotting the natural logarithm of the percentage test compound remaining versus time and performing linear regression.

[8] = test system: PARPs/ARTDs ARTD1/2/3/4/7/8/10/12; assay: PARP/ARTD family selectivity, biochemical assays
[9] = microsomal stability, mouse liver microsomes; type: in vitro ADME; settings: for half-life at 1 μM: pH 7.4, read-out: Microsomal stability t1/2 mouse
Description: as §3

[10] = target: T2, TNKS2 (Homo sapiens, UniProt Q9H2K2); type: biochemical
T2 construct: TNKS2 (residues 873–1162); made in house
T2 sequence (Q9H2K2 873-1162): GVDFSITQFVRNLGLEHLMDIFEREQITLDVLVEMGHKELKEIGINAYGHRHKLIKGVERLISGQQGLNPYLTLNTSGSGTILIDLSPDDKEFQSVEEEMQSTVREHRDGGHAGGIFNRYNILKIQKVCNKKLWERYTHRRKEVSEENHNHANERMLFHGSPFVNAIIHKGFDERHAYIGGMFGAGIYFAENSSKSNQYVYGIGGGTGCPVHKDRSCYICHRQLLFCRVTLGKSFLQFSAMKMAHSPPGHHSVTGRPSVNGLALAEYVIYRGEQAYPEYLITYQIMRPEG
Description: as §1
Human tankyrase active constructs for TNKS1 (residues 1030–1317) and TNKS2 (residues 873–1162) and other ARTD/PARP enzymes used in the assays were expressed and purified as previously described.[34],[35] The enzymatic assay is based on the measurement of unreacted NAD^+, which is chemically converted into a fluorescent compound.[36] The fluorescence intensity was measured with excitation/emission wavelengths of 372 and 444 nm, respectively, using Tecan Infinity M1000 Pro. The compounds were prepared in half log dilution series and the reactions were done in quadruplicates with protein and compound controls to exclude the effect of compound autofluorescence. All reactions were done at ambient temperature. 20 nM TNKS1 or 5 nM TNKS2 was incubated for 20 h in assay buffer (50 mM BTP, pH 7.0, 0.5 mM TCEP, 0.01% Triton-X100) with compound and 10 μM or 500 nM NAD^+, respectively. […] For ARTD3/PARP3, 20 nM enzyme was incubated for 4 h with compound and 500 nM NAD^+ in assay buffer (50 mM PIPES, pH 7.0, 5 mM MgCl2, 20 μg/mL activated DNA, 0.2 mg/mL BSA). The assay conditions for the other ARTD enzymes were used as previously described.[37]

[11] = A-B, read-out: Caco-2 permeability Papp AB
[12] = pH 7.4, read-out: Kinetic Solubility pH 7.4

T1 sequence (P08684 whole entry, species assumed): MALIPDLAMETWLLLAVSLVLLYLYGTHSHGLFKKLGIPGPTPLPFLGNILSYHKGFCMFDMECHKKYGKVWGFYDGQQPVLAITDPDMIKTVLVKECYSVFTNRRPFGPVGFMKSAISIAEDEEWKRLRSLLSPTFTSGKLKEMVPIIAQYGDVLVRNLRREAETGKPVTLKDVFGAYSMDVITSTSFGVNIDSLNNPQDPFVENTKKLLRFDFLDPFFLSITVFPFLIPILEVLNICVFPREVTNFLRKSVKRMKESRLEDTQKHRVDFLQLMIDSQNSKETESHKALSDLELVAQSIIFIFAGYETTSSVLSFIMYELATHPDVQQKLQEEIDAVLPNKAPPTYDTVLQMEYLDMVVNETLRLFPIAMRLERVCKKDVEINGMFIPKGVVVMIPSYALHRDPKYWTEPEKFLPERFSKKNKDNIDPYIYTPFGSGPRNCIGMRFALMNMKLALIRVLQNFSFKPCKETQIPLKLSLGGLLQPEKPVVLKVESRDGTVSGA

With “3-(trans-3-(4-(2-Chlorophenyl)-5-(pyrimidin-4-yl)-4H-1,2,4-triazol-3-yl)cyclobutyl)isoindolin-1-one [compound 51]” the activity in words [1] was “activity was restored”.

Work on `N#Cc1ccc2c(c1)[nH]c(=O)n2[C@H]1C[C@H](c2nnc(-c3ccncn3)n2-c2ccccc2Cl)C1` [compound 1] yielded an IC50 [2] of 1.26 µM, a Papp A→B [3, 11] of 100 nm/s and a CL ([4]; mouse po 5 mg/kg) of 34.0 L/h/kg. The Vd ([4]; mouse po 5 mg/kg) was 74.2 L/kg, the T1/2 ([4]; mouse po 5 mg/kg, 5 mg/kg) was 90 min and the AUC(0-inf) ([4]; mouse, in vivo, po, 5 mg/kg) was 0.147 µg·h/mL. The AUC(0-t) ([4]; mouse, in vivo, po, 5 mg/kg) was 0.145 µg·h/mL, the Cmax ([4]; mouse, in vivo, po, 5 mg/kg) was 0.124 µg/mL and the MRT inf ([4]; mouse, in vivo, po, 5 mg/kg) was 96.6 min. It also gave a Tmax ([4]; mouse, in vivo, po, 5 mg/kg) of 15 min, a bioavailability ([4]; mouse, in vivo, po, 5 mg/kg) of 47% and a half-life ([4]; mouse, in vivo, po, 5 mg/kg, T1/2, mouse po 5 mg/kg) of 90.6 min. It also gave a solubility kinetic ([5]; PBS, pH = 7) of 12 µM (≈ 5.63 µg/mL), a solubility kinetic [5, 12] of 12 µM (≈ 5.63 µg/mL) and a hepatocyte CLint [6] of 9.8 µL/min/1e6 cells. For the same compound, the microsomal CLint at 1 μM ([7]; pH 7.4) was 242 µL/min/mg, the half-life at 1 μM [7] was 6 min and the IC50 [8] was over 10 µM. It also gave a microsomal CLint at 1 μM ([9]; pH 7.4) of 204 µL/min/mg and a half-life at 1 μM [9] of 7 min.

In the case of `Cn1c(=O)n([C@H]2C[C@H](c3nnc(-c4ccncn4)n3-c3ccccc3Cl)C2)c2ccc(C#N)cc21` [compound 17], the IC50 [10] is reported as 0.034 µM and the IC50 [1] is reported as 0.116 µM.

`N#Cc1ccc2c(c1)oc(=O)n2[C@H]1C[C@H](c2nnc(-c3ccncn3)n2-c2ccccc2Cl)C1` [compound 18, 3-(trans-3-(4-(2-Chlorophenyl)-5-(pyrimidin-4-yl)-4H-1,2,4-triazol-3-yl)cyclobutyl)-2-oxo-2,3-dihydrobenzo[d]oxazole-6-carbonitrile] showed an IC50 [10] of 0.048 µM and an IC50 [1] of 0.274 µM.

`N#Cc1ccc2c(c1)[nH]c(=O)n2C12CC(c3nnc(-c4ccncn4)n3-c3ccccc3Cl)(C1)C2` [compound 19, 1-(3-(4-(2-Chlorophenyl)-5-(pyrimidin-4-yl)-4H-1,2,4-triazol-3-yl)bicyclo[1.1.1]pentan-1-yl)-2-oxo-2,3-dihydro-1H-benzo[d]imidazole-5-carbonitrile] gave an efflux ratio at 2 h, 10 µM [3] of 5.3, a Papp A→B at 2 h, 10 µM [3, 11] of 50 nm/s and a solubility kinetic [5, 12] of 1.5 µM (≈ 0.721 µg/mL). The microsomal CLint at 0.75 h, 1 µM ([7]; pH 7.4) was 200 µL/min/mg, the half-life at 1 μM [7] was 7 min and the IC50 [10] was 0.0036 µM. The microsomal CLint at 0.75 h, 1 µM ([9]; pH 7.4) was 256 µL/min/mg, the half-life at 1 μM [9] was 5 min and the IC50 [1] was 0.0047 µM.

For `O=C(N[C@H]1C[C@H](c2nnc(-c3ccccn3)n2-c2ccccc2F)C1)c1ccnc2cccnc12` [compound 26], the solubility ([5]; pH 7.4) was over 80 µM.

`Cc1cccc(-c2nnc([C@H]3C[C@H](NC(=O)c4ccnc5cccnc45)C3)n2-c2ccccc2F)n1` [compound 30] showed a solubility ([5]; pH 7.4) of over 80 µM.

Work on `Cc1cccc(-c2nnc([C@H]3C[C@H](NC(=O)c4ccnc5cc(F)cnc45)C3)n2-c2ccccc2F)n1` [compound 31] yielded a solubility ([5]; pH 7.4) of over 80 µM.

`O=C(N[C@H]1C[C@H](c2nnc(-c3ccc(OC(F)F)cn3)n2-c2ccccc2F)C1)c1ccnc2cccnc12` [compound 34] gave a solubility ([5]; pH 7.4) of 14 µM (≈ 7.44 µg/mL).

`O=C(N[C@H]1C[C@H](c2nnc(-c3ccc(OC(F)F)cn3)n2-c2ccccc2F)C1)c1ccnc2cc(F)cnc12` [compound 35] gave a solubility ([5]; pH 7.4) of 54 µM (≈ 29.7 µg/mL).

In the case of `CN(C(=O)c1ccccn1)[C@H]1C[C@H](c2nnc(-c3ccncn3)n2-c2ccccc2Cl)C1` [compound 44], the activity in words [1] is reported as “inactive”.

For `O=C(Cc1ccccc1)N[C@H]1C[C@H](c2nnc(-c3ccncn3)n2-c2ccccc2Cl)C1` [compound 52], the activity in words [1] was “inactive”.

For `O=C(N[C@H]1C[C@H](c2nnc(-c3ccncn3)n2-c2ccccc2Cl)C1)C1CCCCC1` [compound 53], the activity in words [1] was “inactive”.

For `CC(=O)N[C@H]1C[C@H](c2nnc(-c3ccncn3)n2-c2ccccc2Cl)C1` [compound 54], the activity in words [1] was “inactive”.

With `N#Cc1ccc2c(c1)[nH]c(=O)n2[C@H]1C[C@H](c2nnc(-c3ccncn3)n2-c2ccccc2C(F)(F)F)C1` [compound 66] the activity in words [1] was “comparable activities to the previous lead 1”.

In the case of `N#Cc1ccc2c(c1)[nH]c(=O)n2[C@H]1C[C@@H](c2nnc(-c3ccncn3)n2-c2ccccc2Cl)C1` [compound 75], the potency in words [10] is reported as “decreased potency”.
